In US20070049564A1 (Wyeth, priority 2005, published 2007):
Values after ≈ are worked out from the molar mass of the structure shown. Read-outs that look alike come from different tables or passages of the source.

Assays:
Staph. aureus Smith [1] = experiment: In vitro activity (MIC) against Staph. aureus Smith; type: cell-based; details: for MIC: Staphylococcus aureus
Staph. aureus Smith [2] = experiment: In vivo activity (oral, iv; ED50) against Staph. aureus Smith in mice
Protocol: Representative examples of compounds of Formula I were tested for the oral efficacy using S. aureus Smith in mice.

Staph. = experiment: Range of MIC for Staph. strains, including MRSA; details: for MIC: Staphylococcus aureus
E. coli [3] = experiment: Range of MIC for E. coli strains; details: for MIC: Escherichia coli
E. coli [4] = experiment: In vitro activity (MIC) against E. coli (Table 7); type: cell-based
E. coli #311 = experiment: In vivo activity (oral, iv; ED50) against E. coli in mice; details: for ED50: Escherichia coli
From the text: . […] Smith and E. Coli #311 in mammals.
Results of the tests (MIC, oral and IV) are list in Table 7.

Enterococcus spp. = experiment: In vitro activity (MIC), strain groups; details: Enterococcus spp.
Protocol: (§1) Antimicrobial susceptibility testing. The in vitro activities of the antibiotics are determined by the broth microdilution method as recommended by the National Committee for Clinical Laboratory Standards (NCCLS) (1). Mueller-Hinton II broth (MHBII)(BBL Cockeysville, Md.) is the medium employed in the testing procedures. Microtiter plates containing serial dilutions of each antimicrobial agent are inoculated with each organism to yield the appropriate density (10^5 CFU/ml) in a 100 μl final volume. The plates are incubated for 18-22 hours at 35° C. in ambient air.
(§2) Presented in Tables I-XIII are representative compounds of Formula I which were evaluated against a panel of 40 selected gram-positive and gram-negative bacteria strains by pre-incubation in water, mouse serum or human serum. Representative compounds were first incubated in mouse serum for an hour prior to the in vitro testing against a panel of selected gram-positive and gram-negative bacteria strains. All compounds were also pre-incubated in water for an hour prior to testing as control. Representative compounds of Formula I were incubated in human serum prior to MIC determination.

Streptococcus spp. = experiment: In vitro activity (MIC), strain groups; details: Streptococcus spp.
Protocol: as §1, §2

[5] = test system: E. coli, tet(A-D), efflux; experiment: In vitro activity (MIC), strain groups; details: E. coli, tet(A-D), efflux; Mouse serum
Protocol: as §1
(§3) Representative compounds were first incubated in mouse serum for an hour prior to the in vitro testing against a panel of selected gram-positive and gram-negative bacteria strains. All compounds were also pre-incubated in water for an hour prior to testing as control. Representative compounds of Formula I were incubated in human serum prior to MIC determination.

S. aureus, tet (M) = experiment: In vitro activity (MIC), strain groups
Protocol: as §1, §3

[6] = test system: E. coli, tet (M,S,O) Tet (M); experiment: In vitro activity (MIC), strain groups; details: E. coli, tet (M,S,O) Tet (M)
Protocol: as §1, §2

[7] = Staphylococcus aureus, in Mus musculus, iv, read-out: ED50 SIV (Staph aureus Smith)
[8] = Staphylococcus aureus, in Mus musculus, po, read-out: ED50 SOD (Staph aureus Smith)
[9] = Staphylococcus aureus, in Mus musculus, po, read-out: ED50 Staph Smith SOD
[10] = iv, read-out: ED50 Staph Smith SIV
[11] = MRSA, read-out: Range of MIC, Staph (Mouse Serum)
[12] = MRSA, read-out: Range of MIC, Staph (Water)
[13] = 20 h, read-out: Range of MIC, E. coli (Mouse Serum)

Compound: CCCCN(CC(=O)Nc1cc(N(C)C)c2c(c1O)C(=O)C1=C(O)[C@]3(O)C(=O)C(C(N)=O)=C(O)[C@@H](N(C)C)[C@@H]3C[C@@H]1C2)C(=O)OCOC(=O)CC1CCCC1 [Example 38, ({[(2-{[(5aR,6aS,7S,10aS)-9-(aminocarbonyl)-4,7-bis(dimethylamino)-1,8,10a,11-tetrahydroxy-10,12-dioxo-5,5a,6,6a,7,10,10a,12-octahydrotetracen-2-yl]amino}-2-oxoethyl)(butyl)amino]carbonyl}oxy)methyl cyclopentylacetate]
- MIC (Staph. aureus Smith [1]; Table 8): 2 µg/mL (≈ 2.6 µM)
- ED50 (Staph. aureus Smith [2]; [7]): 0.6 mg/kg
- ED50 (Staph. aureus Smith [2]; [8]): 5.3 mg/kg
- ED50 (Staph. aureus Smith [2]; [9]): 5.3 mg/kg
- ED50 (Staph. aureus Smith [2]; [10]): 0.6 mg/kg
- MIC (Staph.; MRSA, read-out: Minimum inhibitory concentration (MIC), Staph. (mouse serum)): 0.5 to 2 µg/mL (≈ 0.649 to 2.6 µM)
- MIC (Staph.; MRSA, read-out: Minimum inhibitory concentration (MIC), Staph. (water)): 1 to 8 µg/mL (≈ 1.3 to 10.4 µM)
- MIC (Staph.; [11]): 0.5 to 2 µg/mL (≈ 0.649 to 2.6 µM)
- MIC (Staph.; [12]): 1 to 8 µg/mL (≈ 1.3 to 10.4 µM)
- MIC (E. coli [3]; [13]): 0.5 to 4 µg/mL (≈ 0.649 to 5.2 µM)
- MIC (E. coli [3]; read-out: Minimum inhibitory concentration (MIC), E. coli (mouse serum)): 0.5 to 4 µg/mL (≈ 0.649 to 5.2 µM)

Compound: CCCN(CC(=O)Nc1cc(N(C)C)c2c(c1O)C(=O)C1=C(O)[C@]3(O)C(=O)C(C(N)=O)=C(O)[C@@H](N(C)C)[C@@H]3C[C@@H]1C2)C(=O)OCOC(=O)CC1CCCC1 [Example 40, ({[(2-{[(5aR,6aS,7S,10aS)-9-(aminocarbonyl)-4,7-bis(dimethylamino)-1,8,10a,11-tetrahydroxy-10,12-dioxo-5,5a,6,6a,7,10,10a,12-octahydrotetracen-2-yl]amino}-2-oxoethyl)(propyl)amino]carbonyl}oxy)methyl cyclopentylacetate]
- MIC (Staph. aureus Smith [1]; Table 8): 0.5 µg/mL (≈ 0.662 µM)
- ED50 (Staph. aureus Smith [2]; [7]): 0.39 mg/kg
- ED50 (Staph. aureus Smith [2]; [8]): 4.65 mg/kg
- ED50 (Staph. aureus Smith [2]; [9]): 4.65 mg/kg
- ED50 (Staph. aureus Smith [2]; [10]): 0.39 mg/kg
- MIC (Staph.; [11]): 0.25 to 2 µg/mL (≈ 0.331 to 2.65 µM)
- MIC (Staph.; [12]): 0.25 to 2 µg/mL (≈ 0.331 to 2.65 µM)
- MIC (Staph.; MRSA, read-out: Range of MIC, Staph. (mouse serum)): 0.25 to 2 µg/mL (≈ 0.331 to 2.65 µM)
- MIC (Staph.; MRSA, read-out: Range of MIC, Staph. (water)): 0.25 to 2 µg/mL (≈ 0.331 to 2.65 µM)
- MIC (E. coli [3]; [13]): 1 to 2 µg/mL (≈ 1.32 to 2.65 µM)
- MIC (E. coli [3]; read-out: Range of MIC, E. coli (mouse serum)): 1 to 2 µg/mL (≈ 1.32 to 2.65 µM)

Compound: CN(C)c1cc(NC(=O)CN(C(=O)OCOC(=O)CC2CCCC2)C(C)(C)C)c(O)c2c1C[C@H]1C[C@H]3[C@H](N(C)C)C(O)=C(C(N)=O)C(=O)[C@@]3(O)C(O)=C1C2=O [Example 54, ({[(2-{[(5aR,6aS,7S,10aS)-9-(aminocarbonyl)-4,7-bis(dimethylamino)-1,8,10a,11-tetrahydroxy-10,12-dioxo-5,5a,6,6a,7,10,10a,12-octahydrotetracen-2-yl]amino}-2-oxoethyl)(tert-butyl)amino]carbonyl}oxy)methyl cyclopentylacetate]
- MIC (Staph. aureus Smith [1]; Table 6): 0.5 µg/mL (≈ 0.649 µM)
- ED50 (Staph. aureus Smith [2]; [7]): 0.83 mg/kg
- ED50 (Staph. aureus Smith [2]; [8]): 8.4 mg/kg
- ED50 (Staph. aureus Smith [2]; [9]): > 16 mg/kg
- ED50 (Staph. aureus Smith [2]; [10]): 1.17 mg/kg
- MIC (Staph.; [11]): 0.5 to 2 µg/mL (≈ 0.649 to 2.6 µM)
- MIC (Staph.; [12]): 1 to 4 µg/mL (≈ 1.3 to 5.2 µM)
- MIC (Staph.; read-out: Minimum inhibitory concentration (MIC), Staph (Human Serum)): 0.5 to 2 µg/mL (≈ 0.649 to 2.6 µM)
- MIC (Staph.; read-out: Minimum inhibitory concentration (MIC), Staph (Water)): 1 to 4 µg/mL (≈ 1.3 to 5.2 µM)
- MIC (E. coli [4]; Escherichia coli): > 64 µg/mL
- ED50 (E. coli #311; single intravenous dose (SIV), read-out: ED50 E. coli #311 SIV): 3.72 mg/kg
- ED50 (E. coli #311; single intravenous dose, mice, Table 7, read-out: ED50 SIV (E. coli)): 2.16 mg/kg
- ED50 (E. coli #311; single oral dose (SOD), read-out: ED50 E. coli #311 SOD): > 32 mg/kg
- ED50 (E. coli #311; single oral dose, mice, Table 7, read-out: ED50 SOD (E. coli)): 29.2 mg/kg
- MIC (E. coli [3]; [13]): 0.5 to 1 µg/mL (≈ 0.649 to 1.3 µM)
- MIC (E. coli [3]; read-out: Minimum inhibitory concentration (MIC), E. coli (Human Serum)): 16 to 32 µg/mL (≈ 20.8 to 41.6 µM)
- MIC (E. coli [3]; read-out: Minimum inhibitory concentration (MIC), E. coli (water)): > 64 µg/mL
- MIC (E. coli [3]; read-out: Range of MIC, E. coli (Water)): > 64 µg/mL

Compound: [({[(5aR,6aS,7S,10aS)-9-(aminocarbonyl)-4,7-bis(dimethylamino)-1,8,10a,11-tetrahydroxy-10,12-dioxo-5,5a,6,6a,7,10,10a,12-octahydrotetracen-2-yl]amino}carbonyl)oxy]methyl 4-tert-butylbenzoate [Example 87]
- In vitro activity (MIC) (Enterococcus spp.; Human serum): 0.25-8
- In vitro activity (MIC) (Enterococcus spp.; Mouse serum): 0.12-0.5
- In vitro activity (MIC) (Enterococcus spp.; water): 0.25-32
- MIC (Staph aureus Smith) (Staph. aureus Smith [1]; Table 6): 32 µg/mL
- In vitro activity (MIC) (Streptococcus spp.; Human serum): 1-2
- In vitro activity (MIC) (Streptococcus spp.; water): 0.5-2
- In vitro activity (MIC) [5]: 0.25-0.5
- In vitro activity (MIC) (S. aureus, tet (M); Human serum): 16
- In vitro activity (MIC) (S. aureus, tet (M); Mouse serum): 0.5
- In vitro activity (MIC) (S. aureus, tet (M); water): 64
- ED50 SIV (Staph aureus Smith) (Staph. aureus Smith [2]; single intravenous dose, mice, Table 6): 0.83 mg/kg
- ED50 SOD (Staph aureus Smith) (Staph. aureus Smith [2]; single oral dose, mice, Table 6): 12.82 mg/kg
- Range of MIC, Staph (Mouse Serum) (Staph.; Mouse Serum, including MRSA, Table 1): 32 to 64 µg/mL
- Range of MIC, Staph (Water) (Staph.; Water, including MRSA, Table 1): >64 µg/mL
- In vitro activity (MIC) ([6]; Human serum): >64
- In vitro activity (MIC) ([6]; Mouse serum): 0.25-0.5
- In vitro activity (MIC) ([6]; water): >64
- MIC (E. coli) (E. coli [4]): >64 µg/mL
- ED50 SIV (E. coli) (E. coli #311; single intravenous dose, mice, Table 7): 3.6 mg/kg
- ED50 SOD (E. coli) (E. coli #311; single oral dose, mice, Table 7): 60.4 mg/kg
- Range of MIC, E. coli (Water) (E. coli [3]; Water, Table 1): >64 µg/mL
